Patent publication US20060013880A1, “Formulation stabilizer for proton pump inhibitors” (priority 2004, published 2006)

Description: This standardized stress study simulates degradation during long-term storage under high, but naturally occurring humidity levels. • 1) Dry binary mixture was prepared by accurately weighing 30 mg of lansoprazole ( Lot # A10344, purchased from ITF Chemical, LTDA, of Polo Petrochimico, Brazil) into a 20 ml head space-gas chromatography vial. A stabilizer was also weighed and added into the vial. The stabilizer tested in the experiments included the polymeric bases: cholestyramine chloride ( Lot# 038167, Dow Chemical), cholestyramine resin in hydroxide form (prepared from cholestyramine chloride as described in Example 1), Eudragit E-PO powder (lot# G030131033, Rohm Gmbh, Germany), and chitosan powder (Mutchler inc., Harrington, N.J.). […] The lansoprazole and stabilizer were mixed by vortexing for 30 seconds. • 2) A second set of dry binary mixtures were prepared in a head space-gas chromatography vial with a glass insert. […] Ten microliters of the diluted samples were analyzed by HPLC to quantitate the remaining lansoprazole using freshly prepared external lansoprazole standard solution. […]

## cholestyramine hydroxide
  Stabilization effect for lansoprazole (in words): significant stabilization effect
